Laboratory results from the supplement of paper PMC10307832.

Tests used:
Assay in all cases: relative viability (nuclei count vs DMSO), 5 days (fraction); higher = more cells survive
[1] = compound: CC1=CC=C(C=C1)C(=O)CN2C3=C(CCCC3)SC2=N [Pifithrin_alpha] + Cc1nc(Nc2ncc(C(=O)Nc3c(C)cccc3Cl)s2)cc(N2CCN(CCO)CC2)n1 [Dasatinib] (partner 0.075 µM)
How it was run: (§1)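 Lung cancer cell lines were seeded in 1536-well plates and dosed by pin tool the next day, with either a single drug or a fixed anchor-drug dose combined with five library-drug doses (not always all listed) spaced in √10 steps. Five days later, one step fixed the cells and stained their nuclei (final 0.05% Triton X-100, 1% formaldehyde, 1 ug/ml Hoechst), and nuclei were counted on 4× images. Relative viability is the nuclei count in treated wells divided by the count in vehicle wells, and each value is the median of duplicate plates.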

Axitinib + Palbociclib = compound: CNC(=O)c1ccccc1Sc1ccc2c(/C=C/c3ccccn3)n[nH]c2c1 [Axitinib] + CC(=O)c1c(C)c2cnc(Nc3ccc(N4CCNCC4)cn3)nc2n(C2CCCC2)c1=O [Palbociclib] (partner 0.5 µM)
How it was run: as §1

Axitinib + Navitoclax = compound: CNC(=O)c1ccccc1Sc1ccc2c(/C=C/c3ccccn3)n[nH]c2c1 [Axitinib] + CC1(C)CCC(c2ccc(Cl)cc2)=C(CN2CCN(c3ccc(C(=O)NS(=O)(=O)c4ccc(N[C@H](CCN5CCOCC5)CSc5ccccc5)c(S(=O)(=O)C(F)(F)F)c4)cc3)CC2)C1 [Navitoclax] (partner 0.5 µM)
How it was run: as §1

Bemcentinib + AZD7762 = compound: Nc1nc(Nc2ccc3c(c2)CC[C@@H](N2CCCC2)CC3)nn1-c1cc2c(nn1)-c1ccccc1CCC2 [Bemcentinib] + NC(=O)Nc1cc(-c2cccc(F)c2)sc1C(=O)N[C@H]1CCCNC1 [AZD7762] (partner 0.2 µM)
How it was run: as §1

| Cell Line | relative viability ([1]; first compound 1 µM) | relative viability ([1]; first compound 3.162 µM) | relative viability ([1]; first compound 10 µM) | relative viability ([1]; first compound 31.62 µM) | relative viability ([1]; first compound 100 µM) | relative viability (Axitinib + Palbociclib; first compound 0.005 µM) | relative viability (Axitinib + Palbociclib; first compound 0.01581 µM) | relative viability (Axitinib + Palbociclib; first compound 0.05 µM) | relative viability (Axitinib + Palbociclib; first compound 0.1581 µM) | relative viability (Axitinib + Palbociclib; first compound 0.5 µM) | relative viability (Axitinib + Navitoclax; first compound 0.005 µM) | relative viability (Axitinib + Navitoclax; first compound 0.01581 µM) | relative viability (Axitinib + Navitoclax; first compound 0.05 µM) | relative viability (Axitinib + Navitoclax; first compound 0.1581 µM) | relative viability (Axitinib + Navitoclax; first compound 0.5 µM) | relative viability (Bemcentinib + AZD7762; first compound 0.04 µM) | relative viability (Bemcentinib + AZD7762; first compound 0.1265 µM) | relative viability (Bemcentinib + AZD7762; first compound 0.4 µM) | relative viability (Bemcentinib + AZD7762; first compound 1.265 µM) | relative viability (Bemcentinib + AZD7762; first compound 4 µM) |
| --- | --- | --- | --- | --- | --- | --- | --- | --- | --- | --- | --- | --- | --- | --- | --- | --- | --- | --- | --- | --- |
| NCI-H1437 | 0.545 | 0.474 | 0.401 | 0.349 | 0.45 | 0.353 | 0.283 | 0.346 | 0.307 | 0.313 | 1.14 | 1.07 | 1.13 | 1.11 | 1.09 | 1.09 | 1.12 | 1.13 | 1.15 | 1.09 |
| NCI-H1651 | 0.37 | 0.506 | 0.425 | 0.322 | 0.326 | 0.597 | 0.542 | 0.471 | 0.514 | 0.544 | 1.07 | 0.984 | 1.06 | 1.1 | 1.15 | 0.506 | 0.504 | 0.491 | 0.536 | 0.455 |
| NCI-H1666 | 0.808 | 0.81 | 0.682 | 0.588 | 0.542 | 0.689 | 0.606 | 0.653 | 0.631 | 0.657 | 0.975 | 0.91 | 1.01 | 0.914 | 1.18 | 0.95 | 0.91 | 0.867 | 0.768 | 0.704 |
| NCI-H1734 | 0.421 | 0.494 | 0.474 | 0.461 | 0.424 | 0.35 | 0.373 | 0.345 | 0.334 | 0.425 | 0.903 | 0.839 | 0.843 | 0.861 | 0.971 | 0.516 | 0.611 | 0.613 | 0.518 | 0.441 |
| NCI-H1755 | 0.39 | 0.622 | 0.391 | 0.362 | 0.401 | 0.472 | 0.423 | 0.462 | 0.512 | 0.42 | 1.04 | 0.92 | 0.99 | 0.964 | 1 | 0.47 | 0.704 | 0.439 | 0.434 | 0.469 |
| NCI-H1792 |  | 1.17 | 0.641 | 0.533 | 0.639 | 0.654 | 0.635 | 0.592 | 0.564 | 0.654 | 0.637 | 0.527 | 0.62 | 0.562 | 0.366 | 0.577 | 0.888 | 0.681 | 0.442 | 0.669 |
| NCI-H1793 |  | 0.466 | 0.4 | 0.403 | 0.393 | 0.285 | 0.259 | 0.369 | 0.285 | 0.346 | 0.438 | 0.386 | 0.424 | 0.514 | 0.504 | 0.617 | 0.498 | 0.407 | 0.19 | 0.23 |
| NCI-H1915 | 0.284 | 0.295 |  |  | 0.276 | 0.526 | 0.534 | 0.512 | 0.524 | 0.566 | 0.802 | 0.778 | 0.77 | 0.753 | 0.812 | 0.671 | 0.695 | 0.701 | 0.726 | 0.652 |
| NCI-H1944 | 0.217 | 0.214 | 0.217 | 0.173 | 0.196 | 0.365 | 0.342 | 0.328 | 0.318 | 0.307 | 1.07 | 0.995 | 1.01 | 1.02 | 1.06 | 0.645 | 0.563 | 0.488 | 0.452 | 0.32 |
| NCI-H1975 | 0.257 | 0.242 | 0.2 | 0.214 | 0.2 | 0.694 | 0.586 | 0.507 | 0.541 | 0.672 | 1.24 | 1.07 | 1.14 | 1.19 | 1.17 | 0.691 | 0.702 | 0.67 | 0.687 | 0.656 |
| NCI-H1993 | 0.531 | 0.532 | 0.581 | 0.559 | 0.608 | 0.604 | 0.68 | 0.678 | 0.583 | 0.677 | 1.13 | 0.937 | 1.07 | 1.03 | 1.1 | 0.778 | 1.01 | 1.06 | 0.9 | 0.658 |
| NCI-H2085 | 0.205 | 0.262 | 0.222 | 0.268 | 0.174 | 0.495 | 0.482 | 0.454 | 0.487 | 0.452 | 1.09 | 1.28 | 1.26 | 1.03 | 1.18 | 0.956 | 1.03 | 0.863 | 0.767 | 0.748 |
| NCI-H2087 | 0.982 | 0.869 | 0.83 |  | 0.862 | 0.251 | 0.202 | 0.294 | 0.265 | 0.255 | 1.24 | 1.1 | 1.04 | 0.899 | 1.07 | 1.4 | 1.41 | 1.42 | 1.49 | 1.47 |
| NCI-H2126 | 0.392 | 0.48 | 0.431 | 0.451 | 0.391 | 0.345 | 0.348 | 0.347 | 0.327 | 0.343 | 0.81 | 0.877 | 0.824 | 0.841 | 0.765 | 1.05 | 1.01 | 0.999 | 1.09 | 1.09 |
| NCI-H2170 | 0.68 | 0.467 | 0.512 | 0.39 | 0.404 | 0.494 | 0.438 | 0.385 | 0.444 | 0.435 | 0.661 | 0.715 | 0.621 | 0.617 | 0.707 | 0.839 | 1.07 | 0.902 | 0.93 | 0.925 |
| NCI-H2347 | 0.273 | 0.309 | 0.301 | 0.333 | 0.291 | 0.42 | 0.411 | 0.436 | 0.434 | 0.362 | 0.793 | 0.857 | 0.902 | 0.818 | 0.934 | 0.684 | 0.792 | 0.728 | 0.67 | 0.652 |
